Experimental findings from patent publication US6673788B2, “Electrophilic ketones for the treatment of herpesvirus infections” (G. D. Searle & Co., priority 1996, dated 2004) are described below.

For data set [1], the target named is HCMV protease (Assemblin) (Human cytomegalovirus, UniProt P16753). The data set is described as follows: Enzymatic assay for HCMV protease (assemblin) inhibitors. In kind it is biochemical. Conditions: pNA substrate, 30 min preincubation. Here is the method:
Assemblin protease activity was determined using a chromogenic para-nitroanilide (pNA) substrate based on the hCMV maturation cleavage site, succinyl-AGVVNA-para-nitroanilide. […] Potential protease inhibitors were dissolved in DMSO and 10 μL were added to the wells of a 96-well plate (Dynatech, Immulon 1). Enzyme was diluted to 4.8 μg/mL in assay buffer (10 mM sodium phosphate, pH 7.4, 150 mM sodium acetate, 0.1% CHAPS, 20% glycerol) and 100 μL were added to each well. Following a 30 minute incubation at room temperature, 50 μL substrate (1 part 20 mM succinyl-AGVVNA-paranitroanilide (SEQID:1) in DMSO plus 9 parts assay buffer) were added, and periodic readings taken in a microplate reader at 405 nm relative to 650 nm. Activities were expressed as milliabsorbance unit (mAU) change per minute. Inhibitor potency was determined by comparison with incubations lacking inhibitor, which under these conditions gave an increase of 0.5-1 mAU/min. No increase was seen when enzyme was omitted. Results [IC50 (μM)] are included in Table 1.
The construction also encoded six additional histidine residues at the amino terminus of the protease. These additional histidine residues provided an affinity ligand by which it was purified using nickel-nitriloacetic acid-agarose (Qiagen).
The purified protease was stored as a 1-3 mg/ml stock solution in 20 mM HEPES buffer, pH 7.4; containing 20% (v/v) glycerol. This stock was diluted with assay buffer to 4.8 μg/ml. A 100 μL aliquot of this solution was used in the enzyme reaction.
A specific substrate was synthesized based on the cleavage specificity of HCMV protease at the “maturation site” of the assembly protein (F. Liu and B. Roizman, J. Virol., 65, 5149 (1991), and A. Welch, et al, J. Virol., 65, 4091 (1991)). The assembly protein maturation site has the sequence . . . AGVVNA*SCRLATA . . .; the substrate used was succinyl-AGVVNA-PNA (SEQID:1) which was prepared by standard peptide synthetic methods such as that described in Bodansky and Bodansky, “The Practice of Peptide Synthesis” (1984), and was stored as a stock solution at 20 mM in dimethyl sulfoxide. This was diluted 10-fold with assay buffer to give a concentration of 2 mM just before use. An aliquot of 50 μL was used in the reaction
An assay Buffer (10 mM sodium phosphate buffer, pH 7.4; 150 mM sodium acetate; 0.1% CHAPS; and 20% (v/v) glycerol) was used to dilute stock solutions of enzyme and substrate.

Data set [2] has as its target T1, Bovine pancreas α-chymotrypsin (Bos taurus, UniProt P00766, DEL14-15/DEL147-148).
T1 construct: purchased Sigma type II; host or cells: bovine pancreas
The data set is described as follows: Chymotrypsin assay. In kind it is biochemical. Here is the method:
The chymotrypsin assay was modified from the method of Delmar et al [Anal. Biochem., 99, 316-320 (1979)]. Bovine pancreas α-chymotrypsin (type II, Sigma) was dissolved in 0.001 N HCl at 1 mg/ml and further diluted 1/600 in assay buffer (0.1 M Tris, pH 7.8, containing 0.1 M CaCl2) before use. 20 μl of test compound in DMSO (or DMSO alone), 100 μl of assay buffer and 30 μl of enzyme were added to 96 well plates, mixed and pre-incubated for 30 minutes at ambient temperature. Reaction was initiated by addition of 50 μl of 0.2 mM N-succinyl-Ala-Ala-Pro-Phe-p-nitroanilide (Sigma; 2 mM in DMSO diluted 1/10 in assay buffer before use). The increase in absorbance at 405 nm was monitored for 10 minutes with a Biotek EL340 plate reader.

Data set [3] relates to human foreskin fibroblasts. In kind it is cell-based. An excerpt:
(§1) These complimentary assays tested the ability of a compound to inhibit the production of new virus and the toxicity of the compound to the host cells. It was important that both assays be performed simultaneously in order to compare the results directly since, toxicity may indirectly reduce viral yield.
Viral yield was estimated by measuring the amount of a viral antigen produced 4 days post infection with a monoclonal antibody to an abundant “immediate early” viral protein. An enzyme-linked (horseradish peroxidase) secondary antibody specific to the primary (mouse) antibody was used to measure the amount of viral antigen. Test compounds were diluted to 2-times the desired final concentration in DMEM+5% FBS. One hundred microliters of this solution was placed in each well of a 96-well plate. This was performed once for the antiviral 96-well plate and again for a cytotoxicity plate. Two controls were also included for both plates; a no drug control and a no virus control. Ganciclovir was routinely tested in antiviral and cytotoxicity plates as a reference standard because it has known antiviral activity for HCMV. All cells were prepared by harvesting human foreskin fibroblasts, with trypsin and re-suspending at a concentration of 5×10^5 cells per ml in DMEM. Infected cells were prepared by infecting these with HCMV (strain AD169) at a multiplicity of infection=0.2. One hundred microliters of uninfected cells (5×10^4 cells) were added to the appropriate wells of the cytotoxicity plate. In a similar manner 100 μl of infected cells (5×10^4 cells) were added to the appropriate wells of the antiviral plate. […]
In this assay, HCMV replication was monitored by the production of E. coli beta-galactosidase by the engineered virus RC256 [Spaete and Mocarski, Proc. Nat. […] The reaction was stopped with 100 μl 1M CAPS buffer, pH=11.0, per well and the optical density was read at 410 nanometers. Ganciclovir was used as a positive control and the EC50 was determined as described above for the HCMV ELISA. […]

Data set [4] deals with human foreskin fibroblasts. In kind it is cell-based. Conditions: 96 h.
Text: as §1
Viral yield was estimated by measuring the amount of a viral antigen produced 4 days post infection with a monoclonal antibody to an abundant “immediate early” viral protein. An enzyme-linked (horseradish peroxidase) secondary antibody specific to the primary (mouse) antibody was used to measure the amount of viral antigen. Test compounds were diluted to 2-times the desired final concentration in DMEM+5% FBS. One hundred microliters of this solution was placed in each well of a 96-well plate. This was performed once for the antiviral 96-well plate and again for a cytotoxicity plate. Two controls were also included for both plates; a no drug control and a no virus control. Ganciclovir was routinely tested in antiviral and cytotoxicity plates as a reference standard because it has known antiviral activity for HCMV. All cells were prepared by harvesting human foreskin fibroblasts, with trypsin and re-suspending at a concentration of 5×10^5 cells per ml in DMEM. Infected cells were prepared by infecting these with HCMV (strain AD169) at a multiplicity of infection=0.2. […]

Structures are written as SMILES. Where two headings read alike, the source gives them in different places.

Sequence of HCMV protease (Assemblin) (P16753 1-256): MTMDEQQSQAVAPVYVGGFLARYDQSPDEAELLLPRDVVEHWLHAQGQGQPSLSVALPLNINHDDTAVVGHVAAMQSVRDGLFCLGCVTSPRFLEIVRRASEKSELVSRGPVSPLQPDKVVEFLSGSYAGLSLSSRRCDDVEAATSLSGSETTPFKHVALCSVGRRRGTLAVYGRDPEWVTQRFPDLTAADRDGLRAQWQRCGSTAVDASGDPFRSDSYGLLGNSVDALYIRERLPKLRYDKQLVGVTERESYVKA

In general, IC50 refers to the concentration that gives 50% inhibition. Lower therefore signals inhibition by little substance. `O=C(Nc1ccccc1C(=O)C(F)(F)F)c1ccco1` [Example 1, N-[2-(2,2,2-Trifluoro-1-oxoethyl)phenyl]furan-2-carboxamide]: inhibition in data set [1] was half-maximal at 7.7 µM (IC50). Besides, the “Chymotrypsin % @ Conc. (μM)” value in data set [2] (@ 300 μM) stood at 0% @ 300.

Regarding `O=C(CCc1ccccc1)Nc1cc(F)ccc1C(=O)C(F)(F)F` [Example 2, N-[5-Fluoro-2-(2,2,2-trifluoro-1-oxoethyl)phenyl]benzenepropanamide], the IC50 in data set [1] stood at 5.3 µM. Still for that read-out and setting: as for `O=C(CCc1ccccc1)Nc1ccccc1C(=O)C(F)(F)F` [Example 4, N-[2-(2,2,2-Trifluoro-1-oxoethyl)phenyl]benzenepropanamide], the figure is 49 µM. In turn, `O=C(Nc1ccccc1C(=O)C(F)(F)F)c1cnccn1` [Example 5, N-[2-(2,2,2-Trifluoro-1-oxoethyl)phenyl]pyrazine-2-carboxamide] showed an IC50 in data set [1] of 3.7 µM. Moreover, the “Antiviral Activity TD50” value in data set [3] (3 days) was over 100 µM. In data set [2] (@ 300 μM), the “Chymotrypsin % @ Conc. (μM)” value came out at 0% @ 300.

The compound `O=C(Nc1ccccc1C(=O)C(F)(F)F)OCc1ccccc1` [Example 6, Phenylmethyl N-[2-(2,2,2-trifluoro-1-oxoethyl)phenyl]carbamate] had an IC50 in data set [1] of 17 µM. `O=C(CCc1ccccc1)Nc1cc([N+](=O)[O-])ccc1C(=O)C(F)(F)F` [Example 7, N-[5-Nitro-2-[2,2,2-trifluoro-1-oxoethyl)phenyl]benzenepropanamide]: in data set [4], the “Antiviral Activity TD50” value was over 100 µM.

With `O=C(Nc1ccccc1C(=O)C(F)(F)F)c1cc2ccccc2s1` [Example 9, N-[2-(2,2,2-Trifluoro-1-oxoethyl)phenyl]-1-benzothiophene-2-carboxamide], in data set [1], the IC50 amounted to 26 µM. In addition, in data set [3] (3 days), the “Antiviral Activity TD50” value is over 100 µM. For the same compound, the “Chymotrypsin % @ Conc. (μM)” value in data set [2] (@ 100 μM) is given as 48% @ 100. Take `O=C(Nc1ccccc1C(=O)C(F)(F)F)C(F)(F)F` [Example 10, α,α,α-Trifluoro-N-[2-(2,2,2-trifluoro-1-oxoethyl)phenyl]acetamide]: the “Antiviral Activity TD50 (μM)” value in data set [4] is listed as >100/>100 μM. In turn, `O=C(Nc1ccc(I)cc1C(=O)C(F)(F)F)c1ccco1` [Example 13, N-[4-Iodo-2-(2,2,2-trifluoro-1-oxoethyl)phenyl]furan-2-carboxamide] displayed a 50% inhibitory concentration (IC50) in data set [1] of 8.3 µM. For the same compound, in data set [3], the “Antiviral Activity TD50” value is over 100 µM. As a reminder, the melting point is the temperature of the solid-liquid transition. In the case of `O=C(COc1ccc(Cl)cc1)Nc1ccccc1C(=O)C(F)(F)F` [Example 14, N-[2-(2,2,2-Trifluoro-1-oxoethyl)phenyl]4-chlorophenoxyacetamide], the melting point was 134 to 135 °C. The compound `O=C(Nc1ccccc1C(=O)C(F)(F)F)c1cc2ccccc2[nH]1` [Example 15, N-[2-(2,2,2-Trifluoro-1-oxoethyl)phenyl]indolyl-2-carboxamide] registered a melting point of 188 to 193 °C. On to `O=C(Nc1ccccc1C(=O)C(F)(F)F)c1cc2ccccc2o1` [Example 16, N-[2-(2,2,2-Trifluoro-1-oxoethyl)phenyl]benzofuranyl-2-carboxamide], for which the melting point was 130 to 132 °C. The compound also registered a half-inhibitory concentration (IC50) in data set [1] of 36 µM.

In the case of `COc1ccccc1C(=O)Nc1ccccc1C(=O)C(F)(F)C(=O)NC(C)C` [Example 17, N-[2-(3-(2-Propylamino)-3-oxo-2,2-difluoro-1-oxopropyl)phenyl]2-methoxyphenylcarboxamide], the melting point fell in the range of 131.5 to 132 °C. In data set [1], this compound came in with an IC50 of 8.5 µM.
